System: mouse hippocampal slices
Assay: Basal synaptic transmission: fEPSP in hippocampal CA1 region in the presence of Mg2+
Type: cell-based
Conditions: amiloride 100 μM
Procedure: FIG. 6. Representative field-EPSPs and summary data showing the lack of inhibition by amiloride on basal synaptic transmission. In the presence of Mg^2+ (1.0 mM), stimulation of Schaffer collaterals induced field excitatory postsynaptic potential (fEPSP) in the CA1 region of the hippocampus.
Preparation of hippocampal slices and brain slice recording. Hippocampal slices were obtained from 8- to 10-week-old mice. The protocol for brain-slice recording was approved by the Institutional Animal Care and Use Committee of Legacy Research. Animals were deeply anesthetized with isoflurane and decapitated. Brains were quickly removed and placed in ice-cold solution that contained: 125 mM sucrose, 2.5 mM KCl, 26 mM NaHCO3, 1.25 mM NaHPO4, 6.0 mM […], 0.5 mM CaCl2, and 10 mM glucose, and was saturated with 95% O2 and 5% CO2 (pH 7.4). […]
Following ˜60 min of incubation at room temperature, individual slices were transferred to a submerged slice chamber with a volume of 0.5 mL (Warner Instruments, Hamden, Conn.) and perfused with oxygenated aCSF (35° C.) at a rate of 3-4 mL/min. […] The population spike and the field excitatory postsynaptic potentials (fEPSP) were recorded in stratum pyramidale and striatum radiatum of hippocampal CA1 region, by stimulating Schaffer Collaterals.

NC(N)=NC(=O)c1nc(Cl)c(N)nc1N [amiloride, 3,5-diamino-6-chloro-N(diaminomethylidene)pyrazine-2-carboxamide]
effect on amplitude or slope of normal fEPSP: did not affect

Reference: patent US7892764B2, “System for seizure suppression” (priority 2006, dated 2011)
